Test results: patent US12497417B2, “Delivery systems for controlled drug release” (LADRX CORPORATION, priority 2015, dated 2025)

Tests used:
[1] = tested on: human ovarian carcinoma xenograft model OVXF 899; experiment: Gemcitabine and compound 15 in human ovarian carcinoma xenograft model OVXF 899; assay type: in vivo, NMRI nude mice; conditions: for Body weight change (BWC) versus control: compound 15 18 mg/kg gemcitabine equivalents i.v. days 1, 4, 8, 11, 15, 18, 22, 25
Procedure: Animals were kept in cages, the temperature inside the cages maintained at 25±1° C. with a relative humidity of 45-65% and an air change rate in the cage of 60-fold per hour. […] Feed and water were provided ad libitum. […] Animals were routinely monitored twice daily on working days and daily on Saturdays and Sundays. Starting on day 0, animals were weighed twice a week. Relative body weights (RBW) of individual animals are calculated by dividing the individual absolute body weight on day X (BWx) by the individual body weight on the day of randomization. The tumor volume is determined by a two-dimensional measurement with calipers on the day of randomization (Day 0) and then twice weekly. […] Schedules are applied to the extent that animal welfare policies allow. […] Frozen in liquid nitrogen, lyophilized (>48 h) and stoppered.

[2] = tested on: NSLC xenograft model LXFE 397; experiment: Gemcitabine and compound 15 in human xenograft non small cell lung cancer model LXFE 397; assay type: in vivo, NMRI nude mice
Procedure: Female NMRI nude mice received unilateral tumor implants subcutaneously in the left flank while under isoflurane anesthesia with human LXFE 397 (squamous cell carcinoma, differentiation: poor) until tumors were palpable and had reached a volume of 50-150 mm^3. Animals were kept in cages, the temperature inside the cages maintained at 25±1° C. with a relative humidity of 45-65% and an air change rate in the cage of 60-fold per hour. The animals were fed with autoclaved Teklad Global 19% Protein Extruded Diet (T.2019S.12) from Harlan Laboratories and had access to sterile filtered and acidified (pH 2.5) tap water which was changed twice weekly. Feed and water are provided ad libitum. […] Animals are routinely monitored twice daily on working days and daily on Saturdays and Sundays. Starting on day 0, animals are weighed twice a week. Relative body weights (RBW) of individual animals are calculated by dividing the individual absolute body weight on day X (BWx) by the individual body weight on the day of randomization. The tumor volume is determined by a two-dimensional measurement with calipers on the day of randomization (Day 0) and then twice weekly. Tumor volumes are calculated according to the following equation: Tumor Vol [mm^3]=a [mm]×b^2 [mm^2]×0.5, where “a” is the largest diameter and “b” is the perpendicular diameter of the tumor representing an idealized ellipsoid. The relative volume of an individual tumor on day X (RTVx) is calculated by dividing the absolute volume [mm^3] of the respective tumor on day X (Tx) by the absolute volume of the same tumor on the day of randomization. Schedules are applied to the extent that animal welfare policies allow. Termination of individual mice at tumor volume >2000 mm^3. Stock solutions of compound 15 were prepared as follows for the two treatment groups: • 1) 8 mice, 40 g average weight: 24 mg/kg Gemcitabine equivalents≡78.48 mg/kg≡3.14 mg/mouse. Sample preparation: 154 mg weighed in a 20 mL vial dissolved in 14.7 mL 20 mM sodium phosphate buffer pH 7; 4 aliquots with 3.6 mL each in 10 mL vials. Frozen in liquid nitrogen, lyophilized (>48 h) and stoppered. • 2) 8 mice, 40 g average weight: 36 mg/kg Gemcitabine equivalents≡117.7 mg/kg≡4.71 mg/mouse. Sample preparation: 231 mg weighed in a 20 mL vial dissolved in 14.7 mL 20 mM sodium phosphate buffer pH 7; 4 aliquots with 3.6 mL each in 10 mL vials. Frozen in liquid nitrogen, lyophilized (>48 h) and stoppered.
On the day of treatment the lyophilized samples were dissolved in 20 mM sodium phosphate buffer pH 7, containing 5% Glucose and injected intravenously. […]

[3] = tested on: human non-small cell carcinoma xenograft model LXFE 937; experiment: Gemcitabine and compound 15 in human non-small cell carcinoma xenograft model LXFE 937; assay type: in vivo, NMRI nude mice; conditions: for Body weight change (BWC) versus control: compound 15 18 mg/kg gemcitabine equivalents i.v. days 0, 3, 7, 10, 14, 17, 21, 24
Procedure: Female NMRI nude mice received unilateral tumor implants subcutaneously in the left flank while under isoflurane anesthesia with human LXFE 937 tumor pieces until tumors were palpable and had reached a volume of ˜100 mm^3. Animals were kept in cages, the temperature inside the cages maintained at 25±1° C. with a relative humidity of 45-65% and an air change rate in the cage of 60-fold per hour. The animals were fed with autoclaved Teklad Global 19% Protein Extruded Diet (T.2019S.12) from Harlan Laboratories and had access to sterile filtered and acidified (pH 2.5) tap water which was changed twice weekly. Feed and water were provided ad libitum. […] Animals were routinely monitored twice daily on working days and daily on Saturdays and Sundays. Starting on day 0, animals were weighed twice a week. Relative body weights (RBW) of individual animals are calculated by dividing the individual absolute body weight on day X (BWx) by the individual body weight on the day of randomization. The tumor volume is determined by a two-dimensional measurement with calipers on the day of randomization (Day 0) and then twice weekly. Tumor volumes are calculated according to the following equation: • Tumor Vol [mm^3]=a [mm]×b^2 [mm^2]×0.5, where “a” is the largest diameter and “b” is the perpendicular diameter of the tumor representing an idealized ellipsoid. The relative volume of an individual tumor on day X (RTVx) is calculated by dividing the absolute volume [mm^3] of the respective tumor on day X (Tx) by the absolute volume of the same tumor on the day of randomization. Schedules are applied to the extent that animal welfare policies allow. Termination of individual mice at tumor volume >2000 mm^3. Stock solutions of compound 15 were prepared as follows for the two treatment groups: • 1) 8 mice, 40 g average weight: 2×18 mg/kg gemcitabine equivalents (bi-weekly dosing; d 0, 3, 7, 10 etc. for 4 weeks)≡58.4 mg/kg≡2.35 mg/mouse. Sample preparation: 115.5 mg weighed in a 10 mL vial dissolved in 7.35 mL 20 mM sodium phosphate buffer pH 7; 4 aliquots with 1.86 mL each in 10 mL vials. Frozen in liquid nitrogen, lyophilized (>48 h) and stoppered. On the day of treatment the lyophilized samples were dissolved in 20 mM sodium phosphate buffer pH 7, containing 5% Glucose and injected intravenously. Intravenous administration with vehicle (20 mM sodium phosphate buffer, 5% D-glucose—pH 7.0), gemcitabine (dissolved in 5% D-glucose; dose 240 mg/kg) and carried out on 1, 8, 15, and 22 and compound 15 (dissolved in 20 mM sodium phosphate buffer, 5% D-glucose—pH 7.0; 18 mg/kg gemcitabine equivalents) was carried on days 0, 3, 7, 10, 14, 17, 21, and 24.

[4] = tested on: human pancreatic carcinoma xenograft model Panc11159; experiment: Gemcitabine and compound 15 in human pancreatic carcinoma xenograft model Panc11159; assay type: in vivo, NMRI nude mice; conditions: for tumor volumes (change): at day 85, gemcitabine 240 mg/kg, compound 15 18 mg/kg gemcitabine equivalents; for Body weight change (BWC) versus control: gemcitabine 240 mg/kg i.v. d 36, 43, 50, 57, compound 15 18 mg/kg gemcitabine equivalents i.v. d 36, 40, 43, 47, 50, 54, 57, 60
Procedure: Female NMRI nude mice (nu/nu) received unilateral Panc11159 tumor pieces subcutaneously implanted until tumors were palpable and had reached a volume of ˜200 mm^3. Animals were kept in cages (Macrolon Type-II wire-mesh), the temperature inside the cages maintained at 22±1° C. with a relative humidity of 50±10%. Light period: artificial; 12-hours dark/12 hours light rhythm (light 06.00 to 18.00 hours). The health of the mice was examined at the start of the experiment and twice per day during the experiment; identification: Ear mark and cage labels. The animals were fed with Ssniff NM, Soest, Germany and had access to autoclaved and acidified (pH 4.0) drinking. Feed and water were provided ad libitum.
Body weight change was performed two or three times per week. Tumor diameters (median and medium) were measured two or three times a week with a caliper. Tumor volumes were calculated according to V=(length×(width)2)/2. For calculation of the relative tumor volume (RTV) the tumor volumes at each measurement day were related to the day of first treatment. Stock solutions of compound 15 were prepared as follows for the two treatment groups: • 10 mice, 30-40 g average weight: 2×18 mg/kg gemcitabine equivalents (bi-weekly dosing for 4 weeks)≡58.4 mg/kg≡2.35 mg/mouse. Sample preparation: 115.5 mg weighed in a 10 mL vial dissolved in 7.35 mL 20 mM sodium phosphate buffer pH 7; 4 aliquots with 1.86 mL each in 10 mL vials. Frozen in liquid nitrogen, lyophilized (>48 h) and stoppered.
On the day of treatment the lyophilized samples were dissolved in 20 mM sodium phosphate buffer pH 7, containing 5% Glucose and injected intravenously. Intravenous administration with vehicle (20 mM sodium phosphate buffer, 5% D-glucose—pH 7.0) gemcitabine (dissolved in 5% D-glucose; dose 240 mg/kg) and carried out on d 36, 43, 50, 57 compound 15 (dissolved in 20 mM sodium phosphate buffer, 5% D-glucose—pH 7.0; 18 mg/kg gemcitabine equivalents) was carried on days d 36, 40, 43, 47, 50, 54, 57, and 60.

cytidine deaminase = target: T1, cytidine deaminase (Homo sapiens, UniProt P32320); conditions: recommended dose of ˜1000 mg/m^2; cited from earlier work
T1 construct: host or cells: endogenous enzyme in the dosed subject (in vivo metabolism)
T1 sequence (P32320 whole entry): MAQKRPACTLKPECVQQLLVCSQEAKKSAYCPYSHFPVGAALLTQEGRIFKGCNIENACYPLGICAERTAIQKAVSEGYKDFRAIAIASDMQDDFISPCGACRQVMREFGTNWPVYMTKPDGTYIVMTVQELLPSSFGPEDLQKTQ

[5] = approximately one seventh of the dose of gemcitabine, p<0.05
[6] = gemcitabine 240 mg/kg i.v. days 1, 8, 15, 22

SMILES | tumor response ([1]; 50 days after the end of therapy, 18 mg/kg gemcitabine equivalents bi-weekly for 4 weeks) | antitumor efficacy versus gemcitabine (tumor growth development) [1, 5] | Body weight change (BWC) versus control [1, 6] | antitumor efficacy versus gemcitabine (tumor growth development) ([2]; 24 mg/kg gemcitabine equivalents, one tenth of the dose of gemcitabine, p<0.05) | Body weight change (BWC) versus control ([2]; day 27, 24 mg/kg gemcitabine equivalents i.v. days 1, 8, 15, 22) [%] | antitumor efficacy versus gemcitabine (tumor growth development) [3, 5] | Body weight change (BWC) versus control [3, 6] | tumor response ([3]; ˜60 days after the end of therapy, 18 mg/kg gemcitabine equivalents bi-weekly for 4 weeks) | antitumor efficacy versus gemcitabine (tumor growth development) [4, 5] | tumor volumes (change) [4] | Body weight change (BWC) versus control [4] | average tumor volume ([1]; 50 days after therapy, gemcitabine 240 mg/kg) [mm^3] | start of tumor regrowth [1, 6] [days after therapy] | mice sacrificed due to tumor volume exceeding 2000 mm^3 ([1]; on day 74, 8 mice per group) [mice] | fraction deactivated by cytidine deaminase to the inactive uridine metabolite and excreted in the urine (cytidine deaminase) | Body weight change (BWC) versus control ([2]; day 23, gemcitabine 240 mg/kg i.v. days 1, 8, 15, 22) | mice sacrificed due to tumor volume exceeding 2000 mm^3 ([2]; on day 23, 8 mice per group, gemcitabine 240 mg/kg) [mice] | mice sacrificed due to tumor volume exceeding 2000 mm^3 ([3]; between day 78 to 85, 8 mice per group) [mice] | start of tumor regrowth [3, 6] [days after therapy] | average tumor volume ([3]; ˜50 days after therapy, gemcitabine 240 mg/kg) [mm^3]
C/C(=N\NC(=O)c1ccc(NC(=O)CCCCCN2C(=O)C=CC2=O)cc1[N+](=O)[O-])c1ccc(C(=O)Nc2ccn([C@@H]3O[C@H](COP(=O)(O)O)C(O)C3(F)F)c(=O)n2)cc1 (stereo partly drawn) [Compound 15] | complete tumor remissions | superior antitumor efficacy | approximately +10% | superior antitumor efficacy | ~0.5 | superior antitumor efficacy | approximately +2% | complete tumor remissions | superior antitumor efficacy | slight regression or stable disease | approximately +3% |  |  |  |  |  |  |  |  | 
Nc1ccn([C@@H]2O[C@H](CO)[C@@H](O)C2(F)F)c(=O)n1 [gemcitabine] |  |  | approximately +5% |  |  |  | approximately +10% |  |  | doubled | approximately +3% | ~2000 | ~10 | 3 | approximately 90% | approximately −6% | 2 | 2 | ~20 | ~700
